Measurements: paper PMC7862291, “Full-length in meso structure and mechanism of rat kynurenine 3-monooxygenase inhibition” (Communications Biology, 2021)

Columns and labels:
hKMO = target: T1, hKMO (Homo sapiens, UniProt O15229); experiment: Human KMO enzyme (cell-free) assay, NADPH consumption by absorbance; assay type: biochemical
T1 construct: purchased Origene
Experimental: (§1) Human KMO was purchased from Origene and used to assay compounds. Full-length Rat-KMO purified for crystallisation was used to assay compounds. Full-length Rat-KMO-expressing membranes were used for mutant assays (Fig. 4b) only. […] Images were taken using Odyssey CLX (LI-COR Biosciences) and quantified using ImageStudio2.0 (LI-COR Biosciences) software.
(§2) Test compounds were dissolved in DMSO and diluted with assay buffer containing 50 mM HEPES, 2 mM MgCl2, 0.5 mM EGTA, 1 mM DTT, 0.05% Tween20 and 0.005% of antiform SI (pH = about 7.9) to prepare a 4% DMSO solution. […] After 5 min of pre-incubation, reactions were started by adding 10 μL of substrate solution containing 2.4 mM kynurenine and 0.6 mM NADPH. Reactions were run for 90 min at 30 °C, then terminated by adding 5 μL of stop buffer (40 mM maleimide, 2 mM WST-9 and 0.1 mM 1-methoky PMS in water). […] Liposomal assays were performed in the same manner except that the composition of the assay buffer was changed (phosphate-buffered saline, 2 mM MgCl2, 1 mM DTT, 0.05% Tween 20).
(§3) Compound assays were analysed and plotted on graphs using Prism (GraphPad Software Inc. San Diego, CA, USA).

Rat KMO = target: T2, Rat KMO (Rattus norvegicus, UniProt O88867); experiment: Rat KMO enzyme (cell-free) assay, NADPH consumption by absorbance; assay type: biochemical
T2 construct: The GST-tagged full-length KMO (1-478) baculovirus vector contained a thrombin cleavage site; GST (thrombin cleavage site between GST and KMO) (N, cleaved yes); made in house; host or cells: Spodoptera frugiperda (Sf9), baculovirus
Experimental: as §1, §2, §3

T1 sequence (O15229 whole entry): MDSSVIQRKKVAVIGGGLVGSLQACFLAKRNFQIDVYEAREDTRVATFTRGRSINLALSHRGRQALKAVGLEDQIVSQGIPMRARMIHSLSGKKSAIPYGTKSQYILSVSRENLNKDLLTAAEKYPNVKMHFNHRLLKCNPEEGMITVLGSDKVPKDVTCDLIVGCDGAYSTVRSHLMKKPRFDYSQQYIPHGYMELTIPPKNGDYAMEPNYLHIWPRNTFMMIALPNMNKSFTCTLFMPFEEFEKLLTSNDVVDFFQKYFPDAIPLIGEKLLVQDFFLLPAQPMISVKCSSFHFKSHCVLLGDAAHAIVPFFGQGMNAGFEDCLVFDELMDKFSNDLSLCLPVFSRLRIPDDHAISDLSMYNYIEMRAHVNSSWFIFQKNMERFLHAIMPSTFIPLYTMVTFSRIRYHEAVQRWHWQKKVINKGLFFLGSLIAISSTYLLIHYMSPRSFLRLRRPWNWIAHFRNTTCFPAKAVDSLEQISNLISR
T2 sequence (O88867 whole entry): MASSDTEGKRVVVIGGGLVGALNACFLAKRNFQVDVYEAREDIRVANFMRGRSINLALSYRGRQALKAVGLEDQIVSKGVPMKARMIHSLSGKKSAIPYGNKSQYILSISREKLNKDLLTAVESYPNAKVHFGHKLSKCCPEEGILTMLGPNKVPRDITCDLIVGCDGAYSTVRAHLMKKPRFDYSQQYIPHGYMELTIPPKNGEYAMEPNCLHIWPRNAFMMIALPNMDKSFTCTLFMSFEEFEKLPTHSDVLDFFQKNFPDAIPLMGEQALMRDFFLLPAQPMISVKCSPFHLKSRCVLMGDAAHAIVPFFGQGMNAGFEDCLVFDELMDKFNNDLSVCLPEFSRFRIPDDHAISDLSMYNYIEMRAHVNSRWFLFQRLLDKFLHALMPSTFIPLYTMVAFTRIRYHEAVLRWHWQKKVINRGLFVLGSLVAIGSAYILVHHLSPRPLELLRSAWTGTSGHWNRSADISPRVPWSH

IC50 (hKMO; cell-free enzyme assay, high kynurenine, read-out: Human KMO IC50): 14 nM
inhibition at 0.0003 µM (hKMO; conc 0.0003 μM, duplicates, read-out: inhibition rate, Hs-KMO cell-free assay (Figure 1A source data)): 8.45%
inhibition rate, Hs-KMO cell-free assay (Figure 1A source data) (hKMO; conc 0.001 μM, duplicates): 6.826%
inhibition at 0.001 µM (hKMO; conc 0.001 μM, duplicates, read-out: inhibition rate, Hs-KMO cell-free assay (Figure 1A source data)): 4.54%
inhibition rate, Hs-KMO cell-free assay (Figure 1A source data) (hKMO; conc 0.003 μM, duplicates): 16.103%
inhibition at 0.003 µM (hKMO; conc 0.003 μM, duplicates, read-out: inhibition rate, Hs-KMO cell-free assay (Figure 1A source data)): 15.5%
inhibition rate, Hs-KMO cell-free assay (Figure 1A source data) (hKMO; conc 0.01 μM, duplicates): 39.429%
inhibition at 0.01 µM (hKMO; conc 0.01 μM, duplicates, read-out: inhibition rate, Hs-KMO cell-free assay (Figure 1A source data)): 34.9%
inhibition rate, Hs-KMO cell-free assay (Figure 1A source data) (hKMO; conc 0.03 μM, duplicates): 71.311%
inhibition at 0.03 µM (hKMO; conc 0.03 μM, duplicates, read-out: inhibition rate, Hs-KMO cell-free assay (Figure 1A source data)): 74.2%
inhibition rate, Hs-KMO cell-free assay (Figure 1A source data) (hKMO; conc 0.1 μM, duplicates): 87.583%
inhibition at 0.1 µM (hKMO; conc 0.1 μM, duplicates, read-out: inhibition rate, Hs-KMO cell-free assay (Figure 1A source data)): 92.8%
inhibition rate, Hs-KMO cell-free assay (Figure 1A source data) (hKMO; conc 0.3 μM, duplicates): 98.840%
inhibition at 0.3 µM (hKMO; conc 0.3 μM, duplicates, read-out: inhibition rate, Hs-KMO cell-free assay (Figure 1A source data)): 106%
inhibition rate, Hs-KMO cell-free assay (Figure 1A source data) (hKMO; conc 1 μM, duplicates): 98.570%
inhibition at 1 µM (hKMO; conc 1 μM, duplicates, read-out: inhibition rate, Hs-KMO cell-free assay (Figure 1A source data)): 104%
IC50 (Rat KMO; cell-free enzyme assay, high kynurenine): 17 nM
inhibition rate, Rat-KMO cell-free assay (Figure 1B source data) (Rat KMO; conc 0.0003 μM, duplicates): 10.786%
inhibition at 0.0003 µM (Rat KMO; conc 0.0003 μM, duplicates, read-out: inhibition rate, Rat-KMO cell-free assay (Figure 1B source data)): 11.1%
inhibition rate, Rat-KMO cell-free assay (Figure 1B source data) (Rat KMO; conc 0.001 μM, duplicates): 13.043%
inhibition at 0.001 µM (Rat KMO; conc 0.001 μM, duplicates, read-out: inhibition rate, Rat-KMO cell-free assay (Figure 1B source data)): 12.6%
inhibition rate, Rat-KMO cell-free assay (Figure 1B source data) (Rat KMO; conc 0.003 μM, duplicates): 19.707%
inhibition at 0.003 µM (Rat KMO; conc 0.003 μM, duplicates, read-out: inhibition rate, Rat-KMO cell-free assay (Figure 1B source data)): 21.2%
inhibition rate, Rat-KMO cell-free assay (Figure 1B source data) (Rat KMO; conc 0.01 μM, duplicates): 32.767%
inhibition at 0.01 µM (Rat KMO; conc 0.01 μM, duplicates, read-out: inhibition rate, Rat-KMO cell-free assay (Figure 1B source data)): 33%
inhibition rate, Rat-KMO cell-free assay (Figure 1B source data) (Rat KMO; conc 0.03 μM, duplicates): 60.579%
inhibition at 0.03 µM (Rat KMO; conc 0.03 μM, duplicates, read-out: inhibition rate, Rat-KMO cell-free assay (Figure 1B source data)): 60.5%
inhibition rate, Rat-KMO cell-free assay (Figure 1B source data) (Rat KMO; conc 0.1 μM, duplicates): 80.975%
inhibition at 0.1 µM (Rat KMO; conc 0.1 μM, duplicates, read-out: inhibition rate, Rat-KMO cell-free assay (Figure 1B source data)): 83%
inhibition rate, Rat-KMO cell-free assay (Figure 1B source data) (Rat KMO; conc 0.3 μM, duplicates): 95.593%
inhibition at 0.3 µM (Rat KMO; conc 0.3 μM, duplicates, read-out: inhibition rate, Rat-KMO cell-free assay (Figure 1B source data)): 101%
inhibition rate, Rat-KMO cell-free assay (Figure 1B source data) (Rat KMO; conc 1 μM, duplicates): 93.954%
inhibition at 1 µM (Rat KMO; conc 1 μM, duplicates, read-out: inhibition rate, Rat-KMO cell-free assay (Figure 1B source data)): 97.8%
SMILES: COc1ccc2c(c1)CN(c1nc(C(=O)N(C)c3cc(Cl)c(F)cc3C(=O)O)c(Cl)s1)C2 [Compound 4]
